Among the data in BindingDB's records for doi:10.1021/jm300491y (San Francisco State University, 2012) are IC50 values, retold here.

The experiment can be described thus: Inhibition of UT-B in wild type CD1 mouse erythrocyte assessed as hemolysis after 10 mins.

For `CC(C)c1ccc(S(=O)(=O)c2nnn3c2nc(NCc2cccc4ccccc24)c2sccc23)cc1`, the IC50 was over 2.5 µM.

For the compound `Cc1ccc(S(=O)(=O)c2nnn3c2nc(N2CCCCC2)c2sccc23)cc1C`, the IC50 was over 25 µM.

For the compound `CCc1ccc(S(=O)(=O)c2nnn3c2nc(N2CCOCC2)c2sccc23)cc1`, the IC50 was 5.6 µM.
